For one compound, IKKβ level results are on record in patent US9565840B2, “Fibrotic non-human animal, and use thereof” (KYOTO UNIVERSITY, priority 2012, dated 2017).

For the test, the system named is IKKβ. Briefly: IKKβ level in fibroblasts from the skin of scleroderma patients, MG132 pre-treatment before IL-1β stimulation. Format: cell-based, human. The settings on record: fibroblast from the skin of scleroderma patients; 2 μM MG132 for 2 hr before IL-1β (2.5 ng/mL, 60 min) stimulation; FIG. 11-3. On the procedure: The skin of scleroderma patients (n=5) and healthy individual (n=5) was collected by biopsy, and fibroblast was prepared. The fibroblast was cultured in DMEM medium added with L-glutamine, penicillin/streptomycin and 10% FCS at 37° C., 5% CO2 concentration. After culture, nuclear protein was extracted from the fibroblast by using NE-PER nuclear protein cytoplasmic protein separation extraction kit (Thermo Scientific), and the p65 protein levels of the whole-cell lysate and nuclear extract were compared. RNA was isolated from the fibroblast by using RNA aqueous (trade mark) kit (Applied Biosytems (trade mark)), and the p65 mRNA level was compared using TaqMan (registered trade mark) Gene Expression Assays kit (Applied Biosytems (trade mark)). The NFκB activity of the fibroblast was measured by NFκB p65 Transcription Assay Kit (Thermo Scientific) and compared. […] Further, fibroblasts from the skin of scleroderma patients were stimulated for 60 min with IL-1β (2.5 ng/mL), and IKKβ and nuclear p65 protein amounts were compared. […] In addition, fibroblast from the skin of scleroderma patients was treated with 2 μM MG132 for 2 hr before the aforementioned IL-β stimulation, and the IKKβ level was measured.

Structures are written as SMILES. Residues, ends and D or L forms follow the SMILES beside them. *: point of attachment. Cbz = O=C(OCc1ccccc1)*

For the compound `CC(C)C[C@@H](C=O)NC(=O)[C@H](CC(C)C)NC(=O)[C@H](CC(C)C)NC(=O)OCc1ccccc1` [MG132] (Cbz-Leu-Leu-Leu-aldehyde), the IKKβ level result is listed as “recovered the IKKβ level”.
